Reference: US20040063663A1, “Acylated cyclodextrin: guest molecule inclusion complexes” (priority 2000, published 2004)

Assay: Thermal stability of triacetyl-β-CD (TGA)
Type: physicochemical
Method: In order to determine the stability of triacetyl-β-CD, a sample was heated to 400° C. at 20° C./min under nitrogen in a DuPont 2200 thermogravimetric spectrometer (FIG. 7). […] A sample of triacetyl-β-CD was then held at 300° C. for 35 minutes (FIG. 8). Even after extended heating at this temperature, only about 3.2% weight loss was observed.

- Temperature until which 10% weight loss is not observed (TGA, FIG. 7): 372 °C
- Weight loss observed until above 325° C. (heated to 400° C. at 20° C./min under nitrogen): ca. 0.2%
- Weight loss (held at 300° C. for 35 minutes): about 3.2%
SMILES: CC(=O)OC[C@H]1O[C@@H]2O[C@H]3[C@H](OC(C)=O)[C@@H](OC(C)=O)[C@@H](O[C@H]4[C@H](OC(C)=O)[C@@H](OC(C)=O)[C@@H](O[C@H]5[C@H](OC(C)=O)[C@@H](OC(C)=O)[C@@H](O[C@H]6[C@H](OC(C)=O)[C@@H](OC(C)=O)[C@@H](O[C@H]7[C@H](OC(C)=O)[C@@H](OC(C)=O)[C@@H](O[C@H]8[C@H](OC(C)=O)[C@@H](OC(C)=O)[C@@H](O[C@H]1[C@H](OC(C)=O)[C@H]2OC(C)=O)O[C@@H]8COC(C)=O)O[C@@H]7COC(C)=O)O[C@@H]6COC(C)=O)O[C@@H]5COC(C)=O)O[C@@H]4COC(C)=O)O[C@@H]3COC(C)=O [triacetyl-β-CD, heptakis(2,3,6-tri-O-acetyl)-β-cyclodextrin]
